According to PubChem BioAssay AID1259411 (Chemical Carcinogenesis Research Information System (CCRIS), 2018):
Active and inactive are the calls of the source. The rule behind the calls is not given here.

System: rodent carcinogenicity bioassays, tumor incidence
Assay: CCRIS carcinogenicity studies
Summary of the method: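 NCI-built, expert-reviewed records of carcinogenicity and related test outcomes (mutagenicity, tumor promotion/inhibition) compiled from published and report sources, historical span 1985-2011, not updated.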

With `O[C@H]1C=CC=C[C@@H]1O` the carcinogen call (Species: MOUSE, Strain/Sex: SWISS/FEMALE, Route: INTRAPERITONEAL, Dose: 0, 50 UMOL ADMINISTERED AS 3 UNEQUAL DOSES (1/7, 2/7, AND 4/7 OF THE TOTAL DOSE) OVER A 2-WK PERIOD (STUDY DURATION: 28) was “inactive; negative” and the carcinogen call (Species: MOUSE, Strain/Sex: SWISS/MALE, Route: INTRAPERITONEAL, Dose: 0, 50 UMOL ADMINISTERED AS 3 UNEQUAL DOSES (1/7, 2/7, AND 4/7 OF THE TOTAL DOSE) OVER A 2-WK PERIOD (STUDY DURATION: 28) was “inactive; negative”.
With `O=C[C@H](O)[C@@H](O)[C@H](O)CO` the carcinogen call (Species: RAT, Strain/Sex: FISCHER 344/MALE, FEMALE (50/GROUP), Route: DIET, Dose: 0, 2.5, 5% IN DIET FOR 104 WKS (STUDY DURATION: 104 WKS), Dose: 0, 2.5, 5% IN DIET FOR 104 WKS (STUDY DURATION: 104 WKS)) was “inactive; negative”.
With `CC(C)COC(=O)c1ccc(O)cc1` the carcinogen call (Species: MOUSE, Strain/Sex: ICR/FEMALE, Route: ORAL, Dose: 0, 0.15, 0.3, 0.6% IN DIET FOR 102 WK (STUDY DURATION: 106 WK), Dose: 0, 0.15, 0.3, 0.6% IN DIET FOR 102 WK (STUDY DURATION: 106 WK)) was “inactive; negative” and the carcinogen call (Species: MOUSE, Strain/Sex: ICR/MALE, Route: ORAL, Dose: 0, 0.15, 0.3, 0.6% IN DIET FOR 102 WK (STUDY DURATION: 106 WK), Dose: 0, 0.15, 0.3, 0.6% IN DIET FOR 102 WK (STUDY DURATION: 106 WK)) was “inactive; negative”.
In the case of `Cc1cc(=O)[nH]c(=S)[nH]1`, the carcinogen call (Species: HAMSTER, Route: ORAL, Tumor Site: Type of Lesion: THYROID GLAND) is reported as “active; positive”, the carcinogen call (Species: MOUSE, Route: ORAL, Tumor Site: Type of Lesion: THYROID GLAND) is reported as “active; positive” and the carcinogen call (Species: RAT, Route: ORAL, Tumor Site: Type of Lesion: KIDNEY, THYROID GLAND) is reported as “active; positive”.
In the case of `ClCCOCCCl`, the carcinogen call (Species: MOUSE, Strain/Sex: B6AKF1/MALE, Route: GAVAGE/ORAL, Dose: 100 MG/KG FROM DAY 7-28 OF LIFE THEN 300 MG/KG IN DIET, Tumor Site: Type of Lesion: LIVER: HEPATOMA) is reported as “active; positive”, the carcinogen call (Species: MOUSE, Strain/Sex: B6C3F1/MALE,FEMALE, Route: GAVAGE/ORAL, Dose: 100 MG/KG FROM DAY 7-28 OF LIFE THEN 300 MG/KG IN DIET, Tumor Site: Type of Lesion: LIVER: HEPATOMA) is reported as “active; positive” and the carcinogen call (Species: RAT, Strain/Sex: SPRAGUE-DAWLEY/MALE, Route: SUBCUTANEOUS, Dose: 0, 13.1, 4.36 UMOL IN DMSO 1/WK FOR 2 YR (STUDY DURATION: 2 YR), Dose: 0, 13.1, 4.36 UMOL IN DMSO 1/WK FOR 2 YR (STUDY DURATION: 2 YR)) is reported as “inactive; negative”. For the same compound, the carcinogen call (Species: RAT, Strain/Sex: STRAIN-CD/MALE,FEMALE, Route: GAVAGE, Dose: 25, 50 MG/KG IN STEROID SUSPENDING VEHICLE 2/WK FOR 78 WK) was “inactive; negative”.
`CSC1=N[C@@](C)(c2ccccc2)C(=O)N1Nc1ccccc1` was tested, and the carcinogen call (Species: Mouse, Strain/Sex: C57BL/10JfCD-1 Alpk/Female (55/Group), Route: Oral, Dose: 0, 70, 350, 3500, 7000 ppm (0; 12.6; 63.8; 690.5; 1393.2 mg/kg/d) for 80 wks, study duration 80 wks, Dose: 0, 70, 350, 3500, 7000 ppm (0; 12.6; 63.8; 690.5; 1393.2 mg/kg/d) for 80 wks, study duration 80 wks) was “inactive; negative”, the carcinogen call (Species: Mouse, Strain/Sex: C57BL/10JfCD-1 Alpk/Male (55/Group), Route: Oral, Dose: 0, 70, 350, 3500, 7000 ppm (0; 9.5; 47.5; 525.5; 1100.2 mg/kg/d) for 80 wks, study duration 80 wks, Dose: 0, 70, 350, 3500, 7000 ppm (0; 9.5; 47.5; 525.5; 1100.2 mg/kg/d) for 80 wks, study duration 80 wks) was “inactive; negative” and the carcinogen call (Species: Rat, Strain/Sex: Sprague-Dawley/Female (70/Group), Route: Oral, Dose: 0, 60, 150, 1000 ppm (0; 3.63; 9.24; 60.93 mg/kg/day) in diet for 104 wks, study duration 104 wks, Dose: 0, 60, 150, 1000 ppm (0; 3.63; 9.24; 60.93 mg/kg/day) in diet for 104 wks, study duration 104 wks) was “inactive; negative”. For the same compound, the carcinogen call (Species: Rat, Strain/Sex: Sprague-Dawley/Female (70/Group), Route: Oral, Dose: 0, 5000 ppm in diet for 104 wks, study duration 104 wks, Dose: 0, 5000 ppm in diet for 104 wks, study duration 104 wks) was “inactive; negative”, the carcinogen call (Species: Rat, Strain/Sex: Sprague-Dawley/Male (70/Group), Route: Oral, Dose: 0, 60, 150, 1000 ppm (0; 2.83; 7.07; 47.68 mg/kg/day) in diet for 104 wks, study duration 104 wks, Dose: 0, 60, 150, 1000 ppm (0; 2.83; 7.07; 47.68 mg/kg/day) in diet for 104 wks, study duration 104 wks) was “inactive; negative” and the carcinogen call (Species: Rat, Strain/Sex: Sprague-Dawley/Male (70/Group), Route: Oral, Dose: 0, 5000 ppm in diet for 104 wks, study duration 104 wks, Dose: 0, 5000 ppm in diet for 104 wks, study duration 104 wks) was “inactive; negative”.
In the case of `CCCI`, the carcinogen call (Species: MOUSE, Route: INTRAPERITONEAL, Tumor Site: Type of Lesion: LUNG) is reported as “active; positive”.
For `NC(=O)c1ccccc1C(N)=O`, the carcinogen call (Species: MOUSE, Strain/Sex: B6C3F1/FEMALE, Route: ORAL, Dose: 0, 6200, 12500, 25000 PPM IN DIET FOR 103-105 WK, Dose: 0, 6200, 12500, 25000 PPM IN DIET FOR 103-105 WK) was “inactive; negative”, the carcinogen call (Species: MOUSE, Strain/Sex: B6C3F1/MALE, Route: ORAL, Dose: 0, 25000, 50000 PPM IN DIET FOR 105 WK, Dose: 0, 25000, 50000 PPM IN DIET FOR 105 WK) was “inactive; negative” and the carcinogen call (Species: RAT, Strain/Sex: F344/FEMALE, Route: ORAL, Dose: 0, 5000, 10000 PPM IN DIET FOR 106 WK, Dose: 0, 5000, 10000 PPM IN DIET FOR 106 WK) was “inactive; negative”. For the same compound, the carcinogen call (Species: RAT, Strain/Sex: F344/MALE, Route: ORAL, Dose: 0, 15000, 30000 PPM IN DIET FOR 106 WK, Dose: 0, 15000, 30000 PPM IN DIET FOR 106 WK) was “inactive; negative”.
With `O=C1NCCN1/N=C/c1ccc([N+](=O)[O-])o1` the carcinogen call (Species: RAT, Route: ORAL, Tumor Site: Type of Lesion: LYMPHATIC SYSTEM: LYMPHOBLASTIC LYMPHOMA, MAMMARY GLAND) was “active; positive”.
`c1ccncc1` was tested, and the carcinogen call (Species: MOUSE, Strain/Sex: B6C3F1/FEMALE, Route: ORAL, Dose: 0, 125, 250, 500 PPM IN DRINKING WATER FOR 105 WK (STUDY DURATION: 105 WK), Dose: 0, 125, 250, 500 PPM IN DRINKING WATER FOR 105 WK (STUDY DURATION: 105 WK), Tumor Site: Type of Lesion: LIVER: HEPATOCELLULAR ADENOMA, HEPATOCELLULAR CARCINOMA, OR HEPATOBLASTOMA) was “active; positive”, the carcinogen call (Species: MOUSE, Strain/Sex: B6C3F1/MALE, Route: ORAL, Dose: 0, 250, 500, 1000 PPM IN DRINKING WATER FOR 104 WK (STUDY DURATION: 104 WK), Dose: 0, 250, 500, 1000 PPM IN DRINKING WATER FOR 104 WK (STUDY DURATION: 104 WK), Tumor Site: Type of Lesion: LIVER: HEPATOCELLULAR ADENOMA, HEPATOCELLULAR CARCINOMA, OR HEPATOBLASTOMA) was “active; positive” and the carcinogen call (Species: RAT, Strain/Sex: F344/FEMALE, Route: ORAL, Dose: 0, 100, 200, 400 PPM IN DRINKING WATER FOR 105 WK (STUDY DURATION: 105 WK), Dose: 0, 100, 200, 400 PPM IN DRINKING WATER FOR 105 WK (STUDY DURATION: 105 WK), Tumor Site: Type of Lesion: MULTIPLE ORGANS: MONONUCLEAR CELL LEUKEMIA) was “equivocal”. For the same compound, the carcinogen call (Species: RAT, Strain/Sex: F344/MALE, Route: ORAL, Dose: 0, 100, 200, 400 PPM IN DRINKING WATER FOR 104 WK (STUDY DURATION: 104 WK), Dose: 0, 100, 200, 400 PPM IN DRINKING WATER FOR 104 WK (STUDY DURATION: 104 WK), Tumor Site: Type of Lesion: KIDNEY: RENAL TUBULE ADENOMA, RENAL TUBULE ADENOMA OR CARCINOMA) was “active; positive” and the carcinogen call (Species: RAT, Strain/Sex: WISTAR/MALE, Route: ORAL, Dose: 0, 100, 200, 400 PPM IN DRINKING WATER FOR 104 WK (STUDY DURATION: 104 WK), Dose: 0, 100, 200, 400 PPM IN DRINKING WATER FOR 104 WK (STUDY DURATION: 104 WK), Tumor Site: Type of Lesion: TESTIS: INTERSTITIAL CELL ADENOMA) was “equivocal”.
